Results as given in ChEMBL document CHEMBL4020773, “Identification of quinazoline based inhibitors of IRAK4 for the treatment of inflammation” (Bioorg Med Chem Lett, 2017).

What was measured:
[1] = target: T1, Interleukin-1 receptor-associated kinase 4 (Homo sapiens) (UniProt Q9NWZ3); assay: Inhibition of IRAK4 in human whole blood assessed as reduction in R848-stimulated TNF alpha production preincubated for 30 mins followed by R848 addition measured after 5 hrs
T1 sequence (whole entry): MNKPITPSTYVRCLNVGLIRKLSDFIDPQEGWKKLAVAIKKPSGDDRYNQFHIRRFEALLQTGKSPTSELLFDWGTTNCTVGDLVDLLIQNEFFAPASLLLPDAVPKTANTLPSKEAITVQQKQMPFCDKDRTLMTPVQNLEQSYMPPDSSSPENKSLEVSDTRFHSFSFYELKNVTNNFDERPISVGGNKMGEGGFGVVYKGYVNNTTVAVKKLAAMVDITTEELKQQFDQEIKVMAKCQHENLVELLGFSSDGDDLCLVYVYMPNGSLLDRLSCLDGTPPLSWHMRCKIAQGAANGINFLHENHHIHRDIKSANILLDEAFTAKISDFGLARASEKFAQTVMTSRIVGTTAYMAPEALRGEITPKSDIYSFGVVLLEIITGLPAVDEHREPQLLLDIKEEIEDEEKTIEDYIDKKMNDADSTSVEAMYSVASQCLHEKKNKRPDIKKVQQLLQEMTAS

Rattus norvegicus [2] = assay: Terminal plasma concentration in Lewis rat at 3 mg/kg, po administered once daily; format: ADME, organism-based; settings: in vivo, read-out: Cp(T)
Rattus norvegicus [3] = assay: In vivo inhibition of IRAK4 in Lewis rat assessed as reduction in R848-stimulated serum IL-6 secretion at 3 mg/kg, po administered once daily pretreated for 1 hr followed by R848 challenge measured after 1.5 hrs relative to control; format: functional
[4] = target: T2, Interleukin-1 receptor-associated kinase 4 (Homo sapiens, UniProt Q9NWZ3); assay: Inhibition of recombinant human full length GST tagged IRAK4 expressed in baculovirus infected Sf9 cells using RP7030 peptide as substrate after 30 mins in presence of ATP by fluorescence polarization assay
T2 sequence (Q9NWZ3 whole entry): T1 sequence (whole entry)

[5] = Apparent permeability in MDCK cells; format: ADME, cell-based, Canis lupus familiaris; settings: dog
[6] = target: T3, Interleukin-1 receptor-associated kinase 4 (Rattus norvegicus, UniProt D4A7K4); assay: Inhibition of IRAK4 in Lewis rat whole blood assessed as reduction in R848-stimulated TNF alpha production after 4 hrs
T3 sequence (D4A7K4 whole entry): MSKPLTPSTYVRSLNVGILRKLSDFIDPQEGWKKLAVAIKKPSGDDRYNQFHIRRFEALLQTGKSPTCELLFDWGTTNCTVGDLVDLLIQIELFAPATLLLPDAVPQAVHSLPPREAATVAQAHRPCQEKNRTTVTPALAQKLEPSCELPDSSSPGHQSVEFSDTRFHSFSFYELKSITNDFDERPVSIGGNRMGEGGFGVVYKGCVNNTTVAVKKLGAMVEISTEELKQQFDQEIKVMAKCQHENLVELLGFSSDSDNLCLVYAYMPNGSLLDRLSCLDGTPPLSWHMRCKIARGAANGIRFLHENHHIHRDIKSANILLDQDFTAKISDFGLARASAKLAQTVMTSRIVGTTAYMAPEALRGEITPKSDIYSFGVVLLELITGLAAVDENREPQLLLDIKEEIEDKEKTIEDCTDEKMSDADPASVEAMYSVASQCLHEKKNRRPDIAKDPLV

Rattus norvegicus [7] = assay: Terminal plasma concentration in Lewis rat at 100 mg/kg, po administered once daily; format: ADME, organism-based; settings: in vivo, read-out: Cp(T)
Rattus norvegicus [8] = assay: In vivo inhibition of IRAK4 in Lewis rat assessed as reduction in R848-stimulated serum IL-6 secretion at 100 mg/kg, po administered once daily pretreated for 1 hr followed by R848 challenge measured after 1.5 hrs relative to control; format: functional
Rattus norvegicus [9] = assay: In vivo inhibition of IRAK4 in Lewis rat assessed as reduction in R848-stimulated serum IL-6 secretion at 30 mg/kg, po administered once daily pretreated for 1 hr followed by R848 challenge measured after 1.5 hrs relative to control; format: functional
[10] = Oral bioavailability in rat; format: ADME, organism-based; settings: in vivo
Rattus norvegicus [11] = assay: Terminal plasma concentration in Lewis rat at 10 mg/kg, po administered once daily; format: ADME, organism-based; settings: in vivo, read-out: Cp(T)
Rattus norvegicus [12] = assay: Terminal plasma concentration in Lewis rat at 30 mg/kg, po administered once daily; format: ADME, organism-based; settings: in vivo, read-out: Cp(T)
Rattus norvegicus [13] = assay: In-vivo inhibition of IRAK4 in po dosed Lewis rat assessed as reduction in R848-stimulated serum IL-6 secretion administered once daily pretreated for 1 hr followed by R848 challenge measured after 1.5 hrs; format: functional, organism-based
Rattus norvegicus [14] = assay: In vivo inhibition of IRAK4 in Lewis rat assessed as reduction in R848-stimulated serum IL-6 secretion at 10 mg/kg, po administered once daily pretreated for 1 hr followed by R848 challenge measured after 1.5 hrs relative to control; format: functional
[15] = Half life in rat; format: ADME; settings: in vivo
[16] = Clearance in rat; format: ADME; settings: in vivo

Structure (SMILES)	IC50 [1] [nM]	IC50 [4] [nM]	also measured
CN1CCN([C@H]2CC[C@H](Nc3ncnc4ccc(C#N)cc34)CC2)CC1	274		
C[C@@H]1C[C@H]2[C@@H]3CCC4=CC(=O)C=C[C@]4(C)[C@@]3(F)[C@@H](O)C[C@]2(C)[C@@]1(O)C(=O)CO [DEXAMETHASONE]			concentration (Rattus norvegicus [2]): 10 µM; inhibition in vivo at 3 mg/kg (Rattus norvegicus [3]): 86%
N#Cc1ccc2ncnc(N[C@H]3CC[C@H](N4CCC(F)(F)CC4)CC3)c2c1	200		
CN(C)[C@H]1CC[C@H](Nc2ncnc3ccc(C4CC4)cc23)CC1	2500	12	
CS(=O)(=O)N1CCN([C@H]2CC[C@H](Nc3ncnc4ccc(C#N)cc34)CC2)CC1	330		
N#Cc1ccc2ncnc(N[C@H]3CC[C@H](N4CCC4)CC3)c2c1	620	35	
CNCCCCc1c(-c2cc(C)cc(C)c2)cnc2ccc(-c3cncc(O)c3)cc12			Papp [5]: 11 ×10⁻⁶ cm/s
CCc1ccc2ncnc(N[C@H]3CC[C@H](N(C)C)CC3)c2c1	1200	17	
CC(C)c1ccc2ncnc(N[C@H]3CC[C@H](N(C)C)CC3)c2c1	1100	16	
N#Cc1ccc2ncnc(N[C@H]3CC[C@H](N)CC3)c2c1	1400	32	
N#Cc1ccc2ncnc(N[C@H]3CC[C@H](N4CCC(F)CC4)CC3)c2c1	100		
Cc1ccc2ncnc(N[C@H]3CC[C@H](N(C)C)CC3)c2c1	1800		
CN(C)[C@H]1CC[C@H](Nc2ncnc3ccc(Br)cc23)CC1	290	10	
CN(C)[C@H]1CC[C@H](Nc2ncnc3ccc(C(F)(F)F)cc23)CC1	620		
CN(C)[C@H]1CC[C@H](Nc2ncnc3ccc(C#N)cc23)CC1	770		EC50 [6]: 1700 nM
N#Cc1ccc2ncnc(N[C@H]3CC[C@H](N4CCCC4)CC3)c2c1	300		
N#Cc1ccc2ncnc(N[C@H]3CC[C@H](N4CCOCC4)CC3)c2c1	300	7	concentration (Rattus norvegicus [7]): 112 µM; inhibition in vivo at 100 mg/kg (Rattus norvegicus [8]): 91%; concentration (Rattus norvegicus [2]): 5.7 µM; Papp [5]: 41 ×10⁻⁶ cm/s; inhibition in vivo at 30 mg/kg (Rattus norvegicus [9]): 57%; bioavailability [10]: 73%; concentration (Rattus norvegicus [11]): 19 µM; concentration (Rattus norvegicus [12]): 54 µM; inhibition (Rattus norvegicus [13]): Dose-dependent effect; inhibition in vivo at 10 mg/kg (Rattus norvegicus [14]): 2%; EC50 [6]: 2300 nM; half-life [15]: 1.3 h; clearance [16]: 22 mL/min/kg
COc1ccc2ncnc(N[C@H]3CC[C@H](N(C)C)CC3)c2c1	1100	16	
CN(C)[C@H]1CC[C@H](Nc2ncnc3cc(F)c(F)cc23)CC1	> 10000		
CN(C)[C@H]1CC[C@H](Oc2ncnc3ccc([N+](=O)[O-])cc23)CC1	2000	58	
